Data: US9573970B2, “4-{4-[(1E)-4-(2,9-diazaspiro[5.5]undec-2-yl)but-1-en-1-yl]-2-methylbenzyl}-5-(propan-2-yl)-1H-pyrazol-3-yl beta-D glucopyranoside acetate” (Eli Lilly and Company, priority 2013, dated 2017)

Legend:
[1] = system: male rats with STZ-induced diabetes; assay: Mixed meal tolerance test (MTT) in male rats with streptozotocin induced diabetes; type: in vivo, rat; conditions: for Glucose value, 0 min.: 30 min after compound, before meal; for Glucose value, 0 min. / Baseline Adjusted AUC (glucose) / Glucose value, 20 min. / Glucose value, 40 min. / Glucose value, 60 min. / Glucose value, 120 min.: mean ± SE; for Baseline Adjusted AUC (glucose): MTT
Description: The test compound is formulated by adding a vehicle of 1% hydroxyethylcellulose (HEC), 0.25% Tween® 80 w/antifoam 0.05% to preweighed test compound to make a 2.5 mg/ml solution. The mixture is probe sonicated for approximately 30 seconds. The resulting solution is used as a stock solution, from which the lower concentration dose solutions are prepared by dilution with the vehicle. STZ, 45 mg/kg, is formulated by dissolving in 0.1M Citrate buffer in 3 ml aliquots and stored in the dark on ice, when not being administered. A high fat content mixed meal (Bio-Serv® Rodent Diet F3282 High Fat) comprising Fat Calories (60%), Carbohydrate Calories (26%) and Protein Calories (15%) is utilized. Single housed Sprague Dawley rats are allowed to acclimate for a period of 3 to 7 days.
In an effort to ensure that the animals have not recently fed, STZ is administered in the afternoon, approximately six hours into the light cycle (lights on 6 am, lights off 6 pm). The animals are anesthetized with isoflurane and STZ is delivered via tail vein injection. Once animals regain consciousness, they are returned to housing and allowed to recover for 7 days.
On the two days immediately prior to the meal tolerance test (MTT) all rats are given a small amount (2-4 g) of the F3282 diet, so they became acclimated to it prior to receiving it during the experiment. On the evening before the experiment, the rats are moved into clean cages and their food is removed. The following morning animals are weighed and a blood sample is taken by tail snip for glucose measurement (Abbott AlphaTRAK™ glucometers: code 29) Animals are grouped n=6 based on fasted body weight and glucose. Thirty minutes after the test compound is orally administered, two glucose measurements are collected. Then a five gram pellet of Bio-Serv® diet 3282 is given. After 20 minutes remaining food is taken away and weighed. Blood samples are taken at 20, 40, 60 and 120 minutes for glucose measurement.

[2] = system: normal glycemic C57B1/6 mouse; assay: Glucose lowering effects in oral glucose tolerance test (OGTT); type: in vivo; conditions: for Glucose, 20 Minute: 20 min after dextrose; for Glucose, 20 Minute / Glucose, 40 Minute / Glucose, 60 Minute / Glucose, 120 Minute / Baseline Adjusted AUC (glucose) / Glucose, 0 Minute: mean ± SE; for Glucose, 40 Minute: 40 min after dextrose; for Glucose, 60 Minute: 60 min after dextrose; for Glucose, 120 Minute: 120 min after dextrose; for Baseline Adjusted AUC (glucose): OGTT; for Glucose, 0 Minute: baseline 3 h after compound, before dextrose 3 g/kg
Description: The test compound is formulated by adding a vehicle of 1% hydroxyethylcellulose, 0.25% Tween® 80 w/antifoam 0.05% to preweighed test compound to make a 1 mg/ml solution. The mixture is probe sonicated for approximately 30 seconds. The resulting solution is used as a stock solution from which the lower concentration dose solutions are prepared by dilution with the vehicle.
Single housed C57B1/6 mice are fasted overnight by removing access to food the late afternoon before test day. The following morning, the mice are weighed and a single fasting blood sample is taken by tail snip to measure glucose by glucometer (Roche AccuChek). Study groups (n=5) are determined based on fasted blood glucose and comprise preferably animals in the range of 80-100 mg/dl glucose.
After grouping, the first mouse is orally gavaged with 10 ml/kg test compound preparation and a timer started. Each subsequent animal is dosed a minute and a half apart. Three hours after the first compound treatment is started, a baseline blood sample is taken for measuring glucose (from the first animal, via tail snip). The animal is then immediately given an oral dose of 50% dextrose (Hospira) at 3 g/kg. Blood samples are taken for glucose, exactly a minute and half apart, by tail vein so that blood is collected in each animal at 20, 40, 60 and 120 minutes after the dextrose dose.

[3] = in words, Example 1 free base 10 and 30 mg/kg, Acarbose 60 mg/kg

Cc1cc(/C=C/CCN2CCCC3(CCNCC3)C2)ccc1Cc1c(O[C@@H]2O[C@H](CO)[C@@H](O)[C@H](O)[C@H]2O)n[nH]c1C(C)C [Example 1 (free base), 4-{4-[(1E)-4-(2,9-diazaspiro[5.5]undec-2-yl)but-1-en-1-yl]-2-methylbenzyl}-5-(propan-2-yl)-1H-pyrazol-3-yl beta-D-glucopyranoside]
Glucose value, 0 min. ([1]; 10 mg/kg oral): 139 ± 16.1 mg/dL
Baseline Adjusted AUC (glucose) ([1]; 10 mg/kg oral): 22432 ± 2234
Glucose value, 20 min. ([1]; 10 mg/kg oral): 221.2 ± 26.3 mg/dL
Glucose value, 40 min. ([1]; 10 mg/kg oral): 268.7 ± 29 mg/dL
Glucose value, 60 min. ([1]; 10 mg/kg oral): 330 ± 36.7 mg/dL
Glucose value, 120 min. ([1]; 10 mg/kg oral): 490.8 ± 39.2 mg/dL
Glucose value, 0 min. ([1]; 30 mg/kg oral): 137.4 ± 26.9 mg/dL
Baseline Adjusted AUC (glucose) ([1]; 30 mg/kg oral): 14649 ± 3673
Glucose value, 20 min. ([1]; 30 mg/kg oral): 195.4 ± 44.8 mg/dL
Glucose value, 40 min. ([1]; 30 mg/kg oral): 232 ± 52.2 mg/dL
Glucose value, 60 min. ([1]; 30 mg/kg oral): 263.9 ± 62.2 mg/dL
Glucose value, 120 min. ([1]; 30 mg/kg oral): 355.3 ± 73.2 mg/dL
Glucose baseline adjusted AUCs in the MTT [1, 3]: dose dependent decrease in glucose baseline adjusted AUCs
Glucose in the MTT compared to the vehicle controls [1, 3]: significantly and dose dependently decreases glucose
Glucose, 20 Minute ([2]; 0.3 mg/kg oral): 185 ± 13.7 mg/dL
Glucose, 40 Minute ([2]; 0.3 mg/kg oral): 197 ± 14.7 mg/dL
Glucose, 60 Minute ([2]; 0.3 mg/kg oral): 164 ± 6.3 mg/dL
Glucose, 120 Minute ([2]; 0.3 mg/kg oral): 121 ± 11.8 mg/dL
Baseline Adjusted AUC (glucose) ([2]; 0.3 mg/kg oral, in mg·min/dL): 5400 ± 519^
Glucose, 0 Minute ([2]; 0.3 mg/kg oral): 78 ± 4.2 mg/dL
Glucose, 20 Minute ([2]; 1 mg/kg oral): 147 ± 8.3 mg/dL
Glucose, 40 Minute ([2]; 1 mg/kg oral): 171 ± 11.1 mg/dL
Glucose, 60 Minute ([2]; 1 mg/kg oral): 162 ± 5.8 mg/dL
Glucose, 120 Minute ([2]; 1 mg/kg oral): 109 ± 7.3 mg/dL
Baseline Adjusted AUC (glucose) ([2]; 1 mg/kg oral, in mg·min/dL): 4158 ± 374^
Glucose, 0 Minute ([2]; 1 mg/kg oral): 76 ± 3.3 mg/dL
Glucose, 20 Minute ([2]; 3 mg/kg oral): 133 ± 7.1 mg/dL
Glucose, 40 Minute ([2]; 3 mg/kg oral): 150 ± 7.5 mg/dL
Glucose, 60 Minute ([2]; 3 mg/kg oral): 155 ± 7.2 mg/dL
Glucose, 120 Minute ([2]; 3 mg/kg oral): 115 ± 10 mg/dL
Baseline Adjusted AUC (glucose) ([2]; 3 mg/kg oral): 3606 ± 421
Glucose, 0 Minute ([2]; 3 mg/kg oral): 72 ± 2.6 mg/dL
Glucose, 20 Minute ([2]; 10 mg/kg oral): 124 ± 1.2 mg/dL
Glucose, 40 Minute ([2]; 10 mg/kg oral): 137 ± 5.4 mg/dL
Glucose, 60 Minute ([2]; 10 mg/kg oral): 138 ± 6.1 mg/dL
Glucose, 120 Minute ([2]; 10 mg/kg oral): 114 ± 4.3 mg/dL
Baseline Adjusted AUC (glucose) ([2]; 10 mg/kg oral): 2693 ± 309
Glucose, 0 Minute ([2]; 10 mg/kg oral): 78 ± 5.4 mg/dL
Baseline adjusted glucose AUC during an OGTT ([2]; 0.3-10 mg/kg oral, in words): dose dependent decrease in baseline adjusted glucose area under the curve (AUC)
Glucose excursion following an oral bolus of 50% dextrose ([2]; 0.3-10 mg/kg oral, in words): dose dependent decrease in the glucose excursion
